Laboratory results as given in article PMC3901304 (ACS medicinal chemistry letters, 2013).

System: T. gondii cells in culture
Test: Toxoplasma cell culture study
Assay type: cell-based, Toxoplasma gondii
Conditions: for T. gondii in cells at Day 4: no drug control 1140000; for T. gondii in media at Day 4: no drug control 3710000

Row | SMILES | T. gondii in cells at Day 4 (compound at 5 μM) | T. gondii in media at Day 4 (compound at 5 μM) | effect on T. gondii in culture compared with PM (3 at 5 μM versus PM at 3 μM) | T. gondii in cells at Day 4 (PM at 3 μM) | T. gondii in media at Day 4 (PM at 3 μM)
1 | Nc1nc2[nH]c3cccc(Sc4ccc5ccccc5c4)c3c2c(=O)[nH]1 [Compound 1] | 340000 | 2350000 |  |  | 
2 | Nc1nc2[nH]c3cccc(Sc4ccccc4)c3c2c(=O)[nH]1 [Compound 2] | 140000 | 100000 |  |  | 
3 | Nc1nc2[nH]c3cccc(Sc4cccc5ccccc45)c3c2c(=O)[nH]1 [Compound 3] | <2500 | <25000 | equivalent to PM at 3 μM |  | 
4 | CCc1nc(N)nc(N)c1-c1ccc(Cl)cc1 [PM, pyrimethamine, reference compound] |  |  |  | <2500 | <25000
